According to patent publication EP0535155B1, “LIBRARIES OF MODIFIED PEPTIDES WITH PROTEASE RESISTANCE” (CHIRON CORPORATION, priority 1990, dated 2002):
Where a SMILES comes first, the peptide text is derived from it. The star is where a group is joined. Fmoc = O=C(OCC1c2ccccc2-c2ccccc21)*

Tests used:
[1] = test system: trypsin
Procedure: (§1) Each substrate was dissolved to 0.5 mg/mL in 10% DMSO, 100 mM Tris, 100 mM CaCl2, pH 8.0. Either trypsin or chymotrypsin was dissolved to 1 mg/mL in 0.001M HCI. At t=0, 10λ of enzyme or 0.001M HCI was added to 200λ of either the peptoid or peptide solution and incubated at 37°C. At the appropriate times, 50λ was removed and quenched with 50λ of 20% HOAc and assayed by HPLC on a C4 column with detection at 280 nm. The data below is given in percent area remaining on parent peak.

[2] = test system: chymotrypsin
Procedure: as §1

[3] = test system: chymotrypsin; assay: in vitro; conditions: isolated enzyme chymotrypsin, pH 8
Procedure: as §1

[4] = physchem; conditions: buffer or solvent, pH 8
Procedure: as §1

[5] = test system: trypsin; assay: Proteolysis of peptoids and peptides by trypsin (RP-HPLC); conditions: trypsin (isolated protease) in Tris buffer, pH 8
Procedure: as §1

[6] = test system: chymotrypsin; assay: Proteolysis of peptoids and peptides by chymotrypsin (RP-HPLC); conditions: chymotrypsin (isolated protease) in Tris buffer, pH 8
Procedure: as §1

In the case of `CC(C)C[C@H](NC(=O)OCC1c2ccccc2-c2ccccc21)C(=O)N[C@@H](CC(=O)O)C(=O)N[C@@H](Cc1ccccc1)C(=O)N[C@@H](CO)C(=O)N[C@@H](CCCCN)C(=O)NCC(=O)O` [PEPTIDE, FMOC-LDFSKG-OH] (Fmoc-LDFSKG-OH), the “time in which cleavage was complete” value [1] is reported as ≤ 5 min, the “cleavage at the second site” value [2] is reported as “not cbmpletely cleaved” and the metabolised at 10 min, 0.476 mg/mL [3] is reported as ~60%. For the same compound, the remaining at 3 h, 0.476 mg/mL [3] was 0%, the remaining at 5 min, 0.476 mg/mL [4] was 100% and the remaining at 10 min, 0.476 mg/mL [4] was 100%. For the same compound, the remaining at 3 h, 0.476 mg/mL [4] was < 100%, the remaining at 5 min, 0.476 mg/mL [5] was 0% and the remaining at 10 min, 0.476 mg/mL [5] was 0%. For the same compound, the remaining at 3 h, 0.476 mg/mL [5] was 0%, the remaining at 5 min, 0.476 mg/mL [6] was 75% and the remaining at 10 min, 0.476 mg/mL [6] was 41%.
